According to paper PMC10548452 (Journal of medicinal chemistry, 2021):
Like-named read-outs stand apart in the source and are kept apart here.

Experiments:
[1] = test system: HIV-1BaL Env-pseudotyped Luc-expressing virus; type: cell-based; conditions: PHA-stimulated PBMCs; opioid 10 nM
HIV = conditions: primary human astrocytes, cited from earlier work
GHOST CCR5 cells = experiment: Cytotoxicity; conditions: GHOST CCR5 cells; XTT; triplicate
HIV-1BaL [2] = experiment: Anti-HIV-1BaL activity; conditions: GHOST CCR5 cells
[3] = target: mouse MOR expressed in CHO cell lines (mMOR-CHO) (Mus musculus, UniProt P42866); experiment: MOR competitive radioligand binding assay; conditions: ratio of Ki values vs VZMC001
Chain of mouse MOR expressed in CHO cell lines (mMOR-CHO) (P42866 whole entry): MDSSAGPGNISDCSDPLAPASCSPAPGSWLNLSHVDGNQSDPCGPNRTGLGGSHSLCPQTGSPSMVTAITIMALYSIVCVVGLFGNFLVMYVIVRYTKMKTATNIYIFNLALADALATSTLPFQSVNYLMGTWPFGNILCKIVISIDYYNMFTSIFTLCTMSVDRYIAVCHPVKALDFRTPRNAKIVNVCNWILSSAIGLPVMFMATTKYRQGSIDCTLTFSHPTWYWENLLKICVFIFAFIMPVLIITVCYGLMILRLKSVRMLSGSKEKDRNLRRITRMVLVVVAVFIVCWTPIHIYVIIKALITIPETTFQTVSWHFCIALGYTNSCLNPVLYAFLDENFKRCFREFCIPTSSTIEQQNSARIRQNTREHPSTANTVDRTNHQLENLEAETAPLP

[4] = target: mouse mu opioid receptor (mMOR-CHO) (Mus musculus, UniProt P42866); experiment: Calcium mobilization assay in mMOR-CHO cells; type: cell-based; conditions: agonist mode, varying concentrations
Chain of mouse mu opioid receptor (mMOR-CHO) (P42866 whole entry): as above

[5] = target: rhesus macaque CCR5 expressed in Chem-1 cells (Macaca mulatta, UniProt P61813); experiment: CCR5 competitive radioligand binding assay
CCR5 (HOS-CCR5 cells) = CCR5 (HOS-CCR5 cells) (Homo sapiens, UniProt P51681); experiment: Calcium mobilization assay in HOS-CCR5 cells; type: cell-based; conditions: for CCR5 activation (agonism) in Ca2+ mobilization assay: within the range of concentrations tested
Chain of CCR5 (HOS-CCR5 cells) (P51681 whole entry): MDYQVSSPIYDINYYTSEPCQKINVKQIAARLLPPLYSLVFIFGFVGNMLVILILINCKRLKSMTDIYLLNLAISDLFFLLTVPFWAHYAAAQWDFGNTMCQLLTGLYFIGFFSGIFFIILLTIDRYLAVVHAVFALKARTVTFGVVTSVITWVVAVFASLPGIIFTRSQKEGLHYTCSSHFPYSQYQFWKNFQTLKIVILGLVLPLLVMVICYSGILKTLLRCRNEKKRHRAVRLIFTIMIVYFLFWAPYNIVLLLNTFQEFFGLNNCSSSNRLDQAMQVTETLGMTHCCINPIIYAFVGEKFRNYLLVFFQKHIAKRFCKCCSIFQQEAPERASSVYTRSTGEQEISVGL

HIV-1BaL [6] = experiment: HIV-1BaL infection assay in OPRM1- or control plasmid-transfected TZM-bl cells; type: cell-based; conditions: Human immunodeficiency virus 1, TZM-bl, read-out: Inhibition of HIV-1BaL infection EC50, TZM-bl cells containing only control plasmid
[7] = test system: HIV-1BaL Env-pseudotyped Luc-expressing virus (HIV-1-Luc); experiment: HIV-1-Luc infection assay in nonstimulated PBMCs; type: cell-based; conditions: 1000 nM
Cytotoxicity = conditions: human
CCR5 (Macaca mulatta) = CCR5 (Macaca mulatta) (UniProt P61813); experiment: radioligand binding; conditions: cited from earlier work

Chain of MIP-1α (P10147 27-92): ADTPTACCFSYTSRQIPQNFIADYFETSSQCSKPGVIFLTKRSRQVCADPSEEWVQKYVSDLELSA

With `C[C@@H](NC(=O)[C@@H](N)Cc1ccc(O)cc1)C(=O)NCC(=O)N(C)[C@@H](Cc1ccccc1)C(=O)NCCO` [DAMGO, [D-Ala^2-MePhe^4-Gly(ol)^5]enkephalin] the “effect on HIV expression” value [1] was “remarkable increases in HIV expression”.
In the case of `Cc1nnc(C(C)C)n1C1C[C@H]2CC[C@@H](C1)N2CC[C@H](NC(=O)C1CCC(F)(F)CC1)c1ccc(NC(=O)COCC(=O)NCCCCCCCNC(=O)COCC(=O)N[C@@H]2CC[C@@]3(O)[C@H]4Cc5ccc(O)c6c5[C@@]3(CCN4CC3CC3)[C@H]2O6)cc1` (some centres unmarked) [VZMC001, reference compound], the “fold higher inhibition of HIV entry than maraviroc” value (HIV; with morphine) is listed as 7 fold, the “fold higher inhibition of HIV entry than maraviroc” value (HIV; without morphine) is listed as 3.3 fold and the “Cytotoxicity TC50” value (GHOST CCR5 cells) is listed as >100000 nM. For the same compound, the RT activity (HIV-1BaL [2]; concentrations up to 100 μM, 0 μM defined as 100%) was 107.6–226.1%.
In the case of `CC(C)c1nnc(CCNC(=O)COCC(=O)NCCCCCCCNC(=O)COCC(=O)N[C@@H]2CC[C@@]3(O)[C@H]4Cc5ccc(O)c6c5[C@@]3(CCN4CC3CC3)[C@H]2O6)n1C1C[C@H]2CC[C@@H](C1)N2CC[C@H](NC(=O)C1CCC(F)(F)CC1)c1ccccc1` (some centres unmarked) [VZMC013], the “fold higher MOR binding affinity than VZMC001” value [3] is reported as 8.6 fold, the “agonism in Ca2+ mobilization assay” value [4] is reported as “No agonism was observed” and the “fold greater CCR5 binding affinity than monovalent VZMC014” value ([5]; ratio of Ki values vs VZMC014) is reported as 12 fold. The “CCR5 activation (agonism) in Ca2+ mobilization assay” value (CCR5 (HOS-CCR5 cells); agonist mode) was “none of these compounds appeared to activate CCR5”, the “fold more potent than VZMC001 in inhibiting CCL5-stimulated Ca2+ mobilization” value (CCR5 (HOS-CCR5 cells); ratio of IC50 values vs VZMC001) was 2.2 fold and the EC50 (HIV-1BaL [6]) was 610 nM. The “Inhibition of HIV-1-Luc infectivity” value [7] was “nearly complete blockade”, the viability at 6 days, 100 µM (Cytotoxicity) was ~100% and the “Cytotoxicity TC50” value (GHOST CCR5 cells) was >100000 nM. The “TI (therapeutic index, TC50/EC50)” value (HIV-1BaL [2]) was >1075.
In the case of `CNC(=O)COCC(=O)NCCCCCCCNC(=O)COCC(=O)NCCc1nnc(C(C)C)n1[C@@H]1C[C@H]2CC[C@@H](C1)N2CC[C@H](NC(=O)C1CCC(F)(F)CC1)c1ccccc1` [VZMC014], the IC50 (CCR5 (HOS-CCR5 cells)) is reported as 116 nM and the “CCR5 activation (agonism) in Ca2+ mobilization assay” value (CCR5 (HOS-CCR5 cells); agonist mode) is reported as “none of these compounds appeared to activate CCR5”.
For `CC(C)c1nnc(CCNC(=O)COCC(=O)NCCCCCNC(=O)COCC(=O)N[C@@H]2CC[C@@]3(O)[C@H]4Cc5ccc(O)c6c5[C@@]3(CCN4CC3CC3)[C@H]2O6)n1C1C[C@H]2CC[C@@H](C1)N2CC[C@H](NC(=O)C1CCC(F)(F)CC1)c1ccccc1` (some centres unmarked) [VZMC019], the IC50 [5] was > 10000 nM.
Compound “CCL5: C─C motif chemokine ligand 5, CCR5 agonist control [reference compound]” has an EC50 (CCR5 (HOS-CCR5 cells); read-out: Ca2+ mobilization agonism EC50, agonist mode, HOS-CCR5 cells with Gqi5) of 155 ± 6.58 nM.
For MIP-1α (from UniProt P10147), the Kd (CCR5 (Macaca mulatta)) is given as 0.31 nM.
